Data published in patent US9028855B2, “Plant additives and uses thereof to modulate the synthesis of membrane glycerolipids in planta” (Commissariat a l'Energie Atomique et aux Energies …, priority 2009, dated 2015).
Entries after “also recorded” stand apart in the source; their conditions may differ. Values belong to the compound of their own block, whether it stands above or below them.

What was measured:
A. thaliana = assay: Root growth (primary root) of plants on high phosphate medium supplied with compound; type: in vivo; conditions: for Root Growth: expressed as a percentage having regard to a control, +P control 100, −P 20; for primary root growth (in words): high phosphate medium supplied with compound
Source text: In response to phosphate starvation, the primary root growth is inhibited (Svistoonoff et al., 2007).

wild type seedlings = assay: Anthocyanins content (spectrophotometric); type: in vivo, A. thaliana; parameters: key to Antho: anthocyanin content as A530 - 2.2*A652; conditions: accumulation of anthocyanes; +P control 46, −P 1008
Description: Anthocyanins were extracted with propanol:HCl:H2O (81:1:18) for 5 min at room temperature and 3 min at 100° C. Samples are centrifuged for 10 min at 4° C. Supernatants were collected and absorption measured at 530 nm and […]. Anthocyanin content was calculated as A530-2.2A652 (Lange et al., 1971).

[1] = tested on: phosphate transporter PHT1;4; assay: 8′G::GUS, follow-up of the expression of the phosphate transporter PHT1;4 (GUS staining); type: in vivo, A. thaliana; conditions: compound added to the cultivation medium
Source text: 8′G cell line was obtained as follows: for the PHT1;4 promoter fusion, a 2 kb region upstream of the ORF of PHT1;4 was cloned in the vector pENTR/D-TOPO (pENTRT™/D-TOPO® Cloning Kit, ref. K2400-20, Invitrogen) and transferred to pKGWFS7 (Karimi et al., 2002) by recombination using Gateway BP (Gateway® BP Clonase® enzyme mix, ref. 11789-013, Invitrogen) and LR Clonase enzyme mixes (LR Clonase® II Plus enzyme, ref. 12538-120, Invitrogen), respectively, to produce the pPHT1;4:GUS-GFP gene fusion. This fusion was then introduced into the Arabidopsis genome via the Agrobacterium-mediated transformation system (Logemann et al., 2006).
Plants were examined for GUS activity by dipping the samples in a GUS staining solution (50 mM sodium phosphate buffer pH 7.0; 0.01% Triton X-100, 1 mM K3Fe(CN)6, 1 mM K4Fe(CN)6, 1 mg/ml 5-dromo-4-chloro-3-indolyl (3-D-GLUCURONIDE (X-Gluc A) and incubated at 37° C. over-night. After staining, the plants were fixed 2 hours in 50 mM sodium phosphate buffer pH 7.0; 1% glutaraldehyde; 4% formaldehyde.

phopholipase Dz2 = assay: PLDz::GUS, follow-up of the expression of the gene encoding phospholipase Dz2 (GUS staining); type: in vivo, A. thaliana; conditions: summary over PLDz::GUS and MGD3::GUS; specific = without impact on growth or PHT1;4
Description: pPLDZ2:GUS-GFP cell line is as described by Cruz-Ramirez et al. (Cruz-Ramirez et al., 2006), and expressed a GUS-GFP fusion under the control of the pldz2 promoter. […] Plants were examined for GUS activity by dipping the samples in a GUS staining solution (50 mM sodium phosphate buffer pH 7.0; 0.01% Triton X-100, 1 mM K3Fe(CN)6, 1 mM K4Fe(CN)6, 1 mg/ml 5-dromo-4-chloro-3-indolyl (3-D-GLUCURONIDE (X-Gluc A) and incubated at 37° C. over-night. After staining, the plants were fixed 2 hours in 50 mM sodium phosphate buffer pH 7.0; 1% glutaraldehyde; 4% formaldehyde. In response to phosphate starvation, the lipid metabolism is modified (Benning and Ohta, 2005). Plants preferentially synthesize sulpho- and galacto-lipids instead of phospholipids. Several enzymes are involved in this remobilisation.

SMILES: Cc1ccc(NC=C2C(=O)CC(C)(C)CC2=O)cc1 [#1]
- Root Growth (A. thaliana): 64 % of control
- primary root growth (in words) (A. thaliana): without altering the root growth
- Antho (wild type seedlings): 274
- PHT1;4 expression (in words, summary of analogues) [1]: induced PHT 1;4 expression

SMILES: CC1(C)CC(=O)C(=CNc2ccc(Br)cc2)C(=O)C1 [#2]
- Root Growth (A. thaliana): 59 % of control
- Antho (wild type seedlings): 258

SMILES: CC1(C)CC(=O)C(=CNc2ccc(F)c(Cl)c2)C(=O)C1 [#3]
- Root Growth (A. thaliana): 41 % of control
- Antho (wild type seedlings): 806

SMILES: CC1(C)CC(=O)C(=CNc2cc(Cl)cc(Cl)c2)C(=O)C1 [#4]
- Root Growth (A. thaliana): 50 % of control
- Antho (wild type seedlings): 210

SMILES: CC1(C)CC(=O)C(=CNc2ccc(F)cc2)C(=O)C1 [#5]
- Root Growth (A. thaliana): 73 % of control
- primary root growth (in words) (A. thaliana): without altering the root growth; also recorded: do not induce a reduction of the root growth
- Antho (wild type seedlings): 110
- PHT1;4 expression (in words, summary of analogues) [1]: induced PHT 1;4 expression; also recorded: induce expression of the Pht1;4 gene

SMILES: Cc1ccc(NC=C2C(=O)CC(C)(C)CC2=O)cc1Cl [#6]
- Root Growth (A. thaliana): 53 % of control

SMILES: Cc1cccc(NC=C2C(=O)CC(C)(C)CC2=O)c1 [#7]
- Root Growth (A. thaliana): 75 % of control
- primary root growth (in words) (A. thaliana): without altering the root growth
- Antho (wild type seedlings): 172
- PHT1;4 expression (in words, summary of analogues) [1]: induced PHT 1;4 expression

SMILES: CC1(C)CC(=O)C(=CNc2ccc(I)cc2)C(=O)C1 [#8]
- Root Growth (A. thaliana): 56 % of control
- Antho (wild type seedlings): 37

SMILES: Cc1ccc(NC=C2C(=O)CC(C)(C)CC2=O)c(C)c1 [#9]
- Root Growth (A. thaliana): 71 % of control
- Antho (wild type seedlings): 130

SMILES: CC1(C)CC(=O)C(=CNc2cccc(Cl)c2)C(=O)C1 [#10]
- Root Growth (A. thaliana): 41 % of control
- Antho (wild type seedlings): 225

SMILES: CC1(C)CC(=O)C(=CNCc2ccccn2)C(=O)C1 [#11]
- Root Growth (A. thaliana): 63 % of control
- primary root growth (in words) (A. thaliana): without altering the root growth
- Antho (wild type seedlings): 163
- PHT1;4 expression (in words, summary of analogues) [1]: induced PHT 1;4 expression

SMILES: Cc1c(Cl)cccc1NC=C1C(=O)CC(C)(C)CC1=O [#12]
- Root Growth (A. thaliana): 57 % of control
- Antho (wild type seedlings): 850

SMILES: CC1(C)CC(=O)C(=CNc2ccncc2)C(=O)C1 [#13]
- Root Growth (A. thaliana): 42 % of control
- Antho (wild type seedlings): 513

SMILES: CC1(C)CC(=O)C(=CNc2ccc(F)c(F)c2)C(=O)C1 [#14]
- Root Growth (A. thaliana): 61 % of control
- primary root growth (in words) (A. thaliana): without altering the root growth
- Antho (wild type seedlings): 150
- PHT1;4 expression (in words, summary of analogues) [1]: induced PHT 1;4 expression

SMILES: CC1(C)CC(=O)C(=CNc2ccccn2)C(=O)C1 [#15]
- Root Growth (A. thaliana): 40 % of control
- Antho (wild type seedlings): 283

SMILES: CC1(C)CC(=O)C(=CNc2cccnc2)C(=O)C1 [#16]
- Root Growth (A. thaliana): 40 % of control
- Antho (wild type seedlings): 431

SMILES: O=C1CC(c2ccccc2)CC(=O)C1=CNCc1ccccn1 (centres unmarked) [#17]
- Root Growth (A. thaliana): 60 % of control
- Antho (wild type seedlings): 408

SMILES: Cc1cccc(CN/C=C2/C(=O)Nc3ccccc32)n1 [#18]
- Root Growth (A. thaliana): 88 % of control
- Antho (wild type seedlings): 195

SMILES: Cc1ccc(NC=C2C(=O)CC(C)(C)CC2=O)nc1 [#19]
- Root Growth (A. thaliana): 47 % of control
- Antho (wild type seedlings): 193

SMILES: CC1(C)CC(=O)C(=CNc2ncc(C(F)(F)F)cc2Cl)C(=O)C1 [#20]
- Root Growth (A. thaliana): 72 % of control
- primary root growth (in words) (A. thaliana): without altering the root growth; also recorded: do not induce a reduction of the root growth
- Antho (wild type seedlings): 142
- PHT1;4 expression (in words, summary of analogues) [1]: induced PHT 1;4 expression; also recorded: induce expression of the Pht1;4 gene

SMILES: CC(Nc1ccc(Br)cc1)=C1C(=O)CC(C)(C)CC1=O [#21]
- Root Growth (A. thaliana): 93 % of control
- lipid metabolism: induction of PLDζ2 and/or MGD3 genes (in words) (phopholipase Dz2): impact specifically the lipid metabolism inducing PLD[…]2 and MGD3
- Antho (wild type seedlings): 146

- lipid metabolism: induction of PLDζ2 and/or MGD3 genes (in words) (phopholipase Dz2): specificity in lipids remodeling
SMILES: O=C1CCCC(=O)C1=CNc1ccccc1 [#23]
- Root Growth (A. thaliana): 100 % of control
- Antho (wild type seedlings): 42

SMILES: CC1(C)CC(=O)C(=CNc2cccc([N+](=O)[O-])c2)C(=O)C1 [#24]
- Root Growth (A. thaliana): 54 % of control
- Antho (wild type seedlings): 240

SMILES: CC(=NO)c1ccc(NC=C2C(=O)CC(C)(C)CC2=O)cc1 [#25]
- Root Growth (A. thaliana): 63 % of control
- Antho (wild type seedlings): 405

SMILES: Cc1ccnc(NS(=O)(=O)c2ccc(NC=C3C(=O)CC(C)(C)CC3=O)cc2)n1 [#26]
- Root Growth (A. thaliana): 6 % of control
- Antho (wild type seedlings): 640

SMILES: CC1(C)CC(=O)C(=CNc2ccc(Br)cc2)C(=O)C1 [#27]
- Root Growth (A. thaliana): 98 % of control
- primary root growth (in words) (A. thaliana): without altering the root growth; also recorded: do not induce a reduction of the root growth
- Antho (wild type seedlings): 43
- PHT1;4 expression (in words, summary of analogues) [1]: induced PHT 1;4 expression; also recorded: induce expression of the Pht1;4 gene

SMILES: O=C1CC(c2ccccc2)CC(=O)C1=CNc1ccccc1 (centres unmarked) [#28]
- Root Growth (A. thaliana): 100 % of control
- primary root growth (in words) (A. thaliana): do not induce a reduction of the root growth
- Antho (wild type seedlings): 247
- PHT1;4 expression (in words, summary of analogues) [1]: induce expression of the Pht1;4 gene

SMILES: CC1CC(=O)C(=CNc2ccccc2)C(=O)C1 (centres unmarked) [#29]
- Root Growth (A. thaliana): 85 % of control
- lipid metabolism: induction of PLDζ2 and/or MGD3 genes (in words) (phopholipase Dz2): impact specifically the lipid metabolism inducing PLD[…]2 and MGD3; also recorded: specificity in lipids remodeling
- Antho (wild type seedlings): 146

SMILES: CC1(C)CC(=O)C(=CNc2ccc3c(c2)OCO3)C(=O)C1 [#30]
- Root Growth (A. thaliana): 65 % of control
- lipid metabolism: induction of PLDζ2 and/or MGD3 genes (in words) (phopholipase Dz2): impact specifically the lipid metabolism inducing PLD[…]2 and MGD3; also recorded: specificity in lipids remodeling
- Antho (wild type seedlings): 189

SMILES: CC1(C)CC(=O)C(=C(S)Nc2ccccc2)C(=O)C1 [#31]
- Root Growth (A. thaliana): 89 % of control
- lipid metabolism: induction of PLDζ2 and/or MGD3 genes (in words) (phopholipase Dz2): impact specifically the lipid metabolism inducing PLD[…]2 and MGD3; also recorded: specificity in lipids remodeling
- Antho (wild type seedlings): 62

SMILES: CCC1CC(=O)C(=CNc2cc(F)cc(F)c2)C(=O)C1 (centres unmarked) [#32]
- Root Growth (A. thaliana): 13 % of control
- Antho (wild type seedlings): 103

SMILES: O=C1CCCC(=O)C1=CNc1cc(Cl)cc(Cl)c1 [#33]
- Root Growth (A. thaliana): 59 % of control
- Antho (wild type seedlings): 167

SMILES: CC(=O)c1ccc(NC=C2C(=O)CC(C)(C)CC2=O)cc1 [#34]
- Root Growth (A. thaliana): 59 % of control
- Antho (wild type seedlings): 289

SMILES: CSc1ccc(NC=C2C(=O)CC(C)(C)CC2=O)cc1 [#35]
- Root Growth (A. thaliana): 60 % of control
- Antho (wild type seedlings): 208

SMILES: CC1(C)CC(=O)C(=CNc2ccc(S(C)(=O)=O)cc2)C(=O)C1 [#36]
- Root Growth (A. thaliana): 58 % of control
- Antho (wild type seedlings): 235

SMILES: COc1ccc(NC=C2C(=O)CC(C)(C)CC2=O)cc1OC [#37]
- Root Growth (A. thaliana): 69 % of control
- primary root growth (in words) (A. thaliana): do not induce a reduction of the root growth
- Antho (wild type seedlings): 204
- PHT1;4 expression (in words, summary of analogues) [1]: induce expression of the Pht1;4 gene

SMILES: CC1(C)CC(=O)C(=CNc2ccc(O)cc2)C(=O)C1 [#38]
- Root Growth (A. thaliana): 60 % of control
- Antho (wild type seedlings): 206

SMILES: CC1(C)CC(=O)C(=CNc2ccccc2C(N)=O)C(=O)C1 [#39]
- Root Growth (A. thaliana): 60 % of control
- Antho (wild type seedlings): 183

SMILES: O=C1CCCC(=O)C1=CNc1ccc(Cl)c(Cl)c1 [#43]
- Root Growth (A. thaliana): 67 % of control
- primary root growth (in words) (A. thaliana): without altering the root growth; also recorded: do not induce a reduction of the root growth
- Antho (wild type seedlings): 186
- PHT1;4 expression (in words, summary of analogues) [1]: induced PHT 1;4 expression; also recorded: induce expression of the Pht1;4 gene

SMILES: O=C1CCCC(=O)C1=CNc1ccc(Cl)cc1Cl [#44]
- Root Growth (A. thaliana): 68 % of control
- primary root growth (in words) (A. thaliana): without altering the root growth; also recorded: do not induce a reduction of the root growth
- Antho (wild type seedlings): 123
- PHT1;4 expression (in words, summary of analogues) [1]: induced PHT 1;4 expression; also recorded: induce expression of the Pht1;4 gene

SMILES: COc1cccc(NC=C2C(=O)CC(C)(C)CC2=O)c1 [#47]
- Root Growth (A. thaliana): 70 % of control
- primary root growth (in words) (A. thaliana): without altering the root growth; also recorded: do not induce a reduction of the root growth
- Antho (wild type seedlings): 324
- PHT1;4 expression (in words, summary of analogues) [1]: induced PHT 1;4 expression; also recorded: induce expression of the Pht1;4 gene
